# Patent US20260364072A1, “METHODS FOR PROMOTING EXPANSION OF HUMAN CD34+ CELLS IN VIVO AND FOR PROMOTING NEURAL REGENERATION” (THE REGENTS OF THE UNIVERSITY OF CALIFORNIA, priority 2023, published 2026)
# Key:
# sAML LSC = assay: Humanized sAML LSC mouse model; assay type: in vivo, human cells in Rag2-/-γc-/- mice; conditions: twice weekly dosing; splicing factor mutated and unmutated samples
# Description: In humanized mouse models, sAML cells (CD34^+) from two unique […] patient samples that were splicing factor mutated or unmutated were utilized, including sAML50261 and sAML2008-5.^14 For in vivo efficacy and therapeutic index studies, sAML CD34^+ cells, or normal human cord blood-derived or aged bone marrow-derived HSPCs (CD34^+), were transplanted (50,000-200,000 cells per mouse) intrahepatically into neonatal Rag2^−/−γc^−/− mice, or intravenously into adult NSG-SGM3 mice (Jackson Laboratories, Bar Harbor, ME). A subset of experiments was performed with normal aged bone marrow cells that were transduced with the lentiviral ADAR1 nanoluc-GFP reporter vector prior to transplant. […] For animals that received transplants of cells transduced with the lentiviral ADAR1 nanoluc-GFP reporter, mice were imaged 15 weeks after transplant on the IVIS 200, as previously described.^79 Following treatment with Rebecsinib (five intravenous doses total over a two-week period), hematopoietic tissues (peripheral blood, bone marrow, spleens) were collected and analyzed by flow cytometry as previously described.^14 For splice isoform-specific qRT-PCR or RNA-seq analyses on cells from in vivo studies, human CD34^+ LSC from bone marrows and spleens of engrafted mice were isolated by magnetic bead separation (Miltenyi Biotec).
# [1] = system: MCL1-L, BCL-XL, BCL-2, SF3B1, SF3B3 transcripts; assay: Splicing effects on LSC-enriched anti-apoptotic transcripts and splicing factor gene products; assay type: cell-based, human
# Experimental: For quantitative analysis of splice isoform expression, RNA editing rates, and whole gene expression by qRT-PCR, cells or tissue fragments were harvested in RNA lysis buffer and total RNA was extracted using RNeasy mini or micro extraction kits (QIAGEN, Germantown, MD) following the manufacturer's protocol including a DNase incubation step to digest any trace genomic DNA present. Levels of ADAR1 variants and LSC-specific transcripts were quantified by qRT-PCR as previously described.^14 RNA-editing site-specific qRT-PCR (RESSqPCR) was performed for variants in AZIN1 transcripts.^53 Additional species-specific primers were also designed to quantify intron retention rates in cells treated with Rebecsinib as a biomarker of response to RNA splicing modulation. Specifically, for the two-step SYBR-green based assays, as previously described,^7,14,53 100-1000 ng of RNA were subjected to cDNA synthesis using the SUPERSCRIPT III™ (ThermoFisher Scientific) kit followed by qRT-PCR using SYBR GreenER (ThermoFisher Scientific) master mix according to the manufacturer's recommended procedures. qRT-PCR was performed using SYBR GREENER SUPER MIX™ (Life Technologies) on BioRad iQ5™, C1000 TOUCH™, or BioRad CFX384™ instruments. […] Relative mRNA expression values were calculated using the 2^−ΔCT method, with normalization to untreated or vehicle-treated controls.^54
# [2] = system: human CD45+ADAR1-GFP+ cells and CD45+CD3+ADAR1-GFP+ cells; assay: aNBM SAK148 PDX mice, flow cytometry; assay type: in vivo, human cells in NSG-SGM3 mice; conditions: 10 mg/kg, IV, BIW×2
# Experimental: Aged normal bone marrow (aNBM) PDX mouse models SAK148, which were established with 80-100K ADAR1-reporter transduced CD34+ cells by IV injection into NSG-SGM3 mice at the age of 5-6 weeks. When the models were ready, the mice were treated with either vehicle or rebecsinib (10 mg/kg, IV, BIW×2). The mice were sacrificed upon completion of the dosing plan, and single cells from PB, SP, and BM were collected and stained with mAbs for CD45, CD3, CD14, and CD19.
# MDA-MB-231 cells = assay: IVIS total flux in MDA-MB-231 transplanted mice; assay type: in vivo, human cells in Rag2 neonatal mice; conditions: 0 day after completing the dosing plan; compared to vehicle control
# Description: FIG. 5 graphically illustrates IVIS (In Vivo Imaging System) results of ADAR1-MDA-MB-231 transplanted Rag2 mouse models, and IVIS images were taken at 6 weeks after transplant (FIG. 5A), after two weeks of therapy (FIG. 5B), and one week after therapy was completed (FIG. 5C), as discussed in further detail in Example 5, below.
# Ten thousand (10k) MDA-MB-231 cells were intrahepatically transplanted into Rag2 neonatal mice, then treated with fedratinib, rebecsinib, or a combination of fedratinib and rebecsinib. IVIS images were taken at 6 weeks after transplant (FIG. 5A), after two weeks of therapy (FIG. 5B), and one week after therapy was completed (FIG. 5C). The IVIS signals from the mice were graphed by groups.
# The IVIS images of these mice were taken at 0 day after completing the dosing plan and are graphed by their total flux.
compound,measurement,setting,value
CC[C@H](OC)[C@@H](C)[C@H]1O[C@@H]1[C@@H](O)[C@H](C)/C=C/C=C(\C)[C@H]1OC(=O)C[C@H](O)CC[C@@](C)(O)[C@@H](OC(C)=O)/C=C/[C@@H]1C [Rebecsinib],"sAML LSC burden in bone marrow, peripheral blood, and spleen",sAML LSC,significant reduction in sAML LSC burden
same,"LSC-enriched anti-apoptotic transcripts, including MCL1-L, BCL-XL, and BCL-2",[1],reduces
same,"intron retention in splicing factor gene products, such as SF3B1 and SF3B3",[1],induces marked intron retention
same,"CD45+CD3+GFP+ cells in PB, SP, and BM",[2],spares the cell populations
same,"CD45+GFP+ cells in PB, SP, and BM",[2],spares the cell populations
same,total flux (IVIS),MDA-MB-231 cells,significantly decreased
